Measured values as given in patent US20230014226A1, “NEW COMPOUNDS AND METHODS” (BenevolentAI Bio Limited, priority 2019, published 2023).
Where two headings read alike, the source gives them in different places. One block for each molecule: values may come before it.

Assays:
[1] = system: murine Hb9-GFP+ motor neurons in co-culture with ALS patient iAstrocytes; test: Human iAstrocyte - murine Hb9-GFP+ motor neuron co-culture; format: cell-based, human iAstrocytes; settings: for rescue of motor neuron survival in co-culture with patient-derived iAstrocytes (FIG. 3): 72 hours co-culture, dose dependant, maximum responses close to positive control (1 μM Nilotinib); for efficacy at very high concentrations (motor neuron survival): potentially due to compound toxicity
Description: iNPCs (induced Neuronal Progenitor Cells) were derived from ALS patient fibroblasts as described previously (Meyer et al. 20148). iNPCs were differentiated into iAstrocytes by culturing in iAsrocyte media for at least 5 days. Murine motor neurons expressing the green fluorescent protein (GFP) under the Hb9 motor neuron-specific promoter (called from now on Hb9-GFP+) were differentiated from murine embryonic stem cells via embryoid bodies (EBs), as previously described (Haidet-Phillips et al. 20119, Wichterle et al. 200210).
iNPCs and mESC were split into iAstrocyte media and mEB media respectively on the same day, such that iAstrocytes and motor neurons will have both differentiated for 7 days when seeded together in co-culture.
Changed media on iAstrocytes, and split using accutase if 90-100% confluent 3 days after seeding from iNPCs. iAstrocytes were left a further 2 days in iAstrocyte media until seeded onto 384-well plates.
Diluted fibronection 1:400 in PBS, and 5 μL added per well. The plate was incubated with fibronectin at room temp for at least 5 mins.
The media was removed from iAstrocytes, and washed in PBS. 1 mL accutase per 10 cm plate was added, and incubated at 37° C. for 4 mins. The plate was tapped to dislodge any remaining iAstrocytes. The iAstrocytes were resuspended in iAstro media, and centrifuged at 200×g for 4 mins. The supernatant was removed, the falcon was flicked to vortex the cells, and resuspended the cells in an appropriate amount of iAstrocyte media. Counted cells using the haemocytometer, and diluted cells to an appropriate dilution for seeding. Seeded 1-2,000 iAstrocytes in 35 μL media on fibronectin-coated 384-well plates. Centrifuged 384-well plates at 1,760×rpm for 60 s using a PK120 (ALC) centrifuged (in neurogenetics) to collect media and cells to base of wells. Plates were left for 24 h for iAstrocytes to adhere to plate.
Drugs were delivered in 100% drug-grade DMSO to iAstrocyte media using an Echo550 liquid handler (Labcyte). 384-well plates were centrifuged at 1,760×rpm for 60 s using a PK120 (ALC) centrifuge.
2 plates of EBs were collected in a 50 mL tube and centrifuged for 4 mins at 200×g. The supernatant was removed from EBs after centrifugation, and washed in 10 mL PBS then centrifuged again for 4 mins at 200×g, and PBS wash removed.
For each 50 mL tube, 2.75 mL EB dissociation buffer was added and then 250 μL 200 U/mL (10×) Papain. The solution was gently pipetted up and down 10 times, using a P1000 pipette, against the side of the falcon (EB pellet was not pipetted directly). 50 mL tube was put in 37° C. water bath and incubated for 5 mins. Tube removed every 3 mins and gently shaken. After 5 mins, additional 2 mL of EB dissociation and 100 μL 200 U/mL (10×) Papain were added, which was then pipette again 5 times with P1000 pipette, and returned to the water bath for another 5 mins. It was returned to water bath as before, and incubated for no longer than 15-20 mins.
Centrifuged for 5 mins at 300×g. Each 50 mL tube, 2.7 mL EB dissociation was prepared, to which 300 μL FBS and 150 μL 0.5 mg/mL DNaseI was added. The supernatant was removed from dissociated EBs and 3 mL of the FBS/DNaseI mix was added, pipetted up and down with P1000 pipette about 5 times. 5 mL FBS was added very slowly to the bottom of the falcon containing the dissociated EBs. The supernatant was removed and the cells very gently resuspended in about 3 mL MN media (more used if the pellet is large) and filtered through a 40 μm filter. 1 mL extra MN media was added to wash the filter.
2,500 murine Hb9-GFP+ motor neurons were seeded per well in 10 μL motor neuron media on top of the pre-treated iAstrocytes. 384-well plates were centrifuged at 1,760×rpm for 60 s using a PK120 (ALC) centrifuge.
Day8 15 μL motor neuron media were added per well. Hb9-GFP+ motor neurons were imaged using an INCELL analyser 2000 (GE Healthcare)—day 1 of co-culture. […]

[2] = system: α-synuclein in ReNcell VM Neuronal cells; test: Modulation of α-synuclein aggregation; format: cell-based; settings: for amount of α-synuclein present in ReNcell VM neuronal cells (FIG. 4): 6 days of compound treatment, antibodies Syn205 and MJF-14; for IC50: ReNcell VM, 100% = reduction equal to 10 μM KU0063794, 0% = 0.1% DMSO
Method: Compounds were assessed for their ability to modulate α-synuclein aggregation. ReNcell VM Neuronal cells were transduced with α-synuclein encoded adenovirus, and compounds were added after 24 hours. After 72 hours, compound was refreshed. After an additional 72 h, cells were fixated (a total of 6 days of compound treatment). Two distinct α-synuclein antibodies were added (Syn205 and MJF-14), imaging was performed on IN Cell 2200 at 10× magnification. Immunoreactivity is quantified by a high content algorithm. Compound data is normalized to a negative control (0.1% DMSO) and a positive control (10 μM KU0063794; CAS 938440-64-3).

HUVEC = HUVEC Cell Viability (CV) assay; format: cell-based, human; settings: Homo sapiens, alamarBlue
Method: Cells are seeded at 10,000 cells/well in 96-well plates in HUVEC specific cell culture media. Cells are plated and cultured overnight (16-24 h) at 37° C. After the overnight culture, cells are washed and fed with the Assay Medium. Test compounds are applied and incubated with the cells for the designated time period, after which the cell viability is measured by alamarBlue method. […] The final DMSO concentration is 1%.
Fluorescence readings are recorded after the test compound and alamarBlue incubation. The excitation and emission wavelengths are 530 nm and 590 nm, respectively.
The percent of control is calculated by comparing the readings in the presence of the test compound to the vehicle control. Subsequently, the percent inhibition is calculated by subtracting the percent control activity from 100. IC50 values (concentration causing a half-maximal inhibition of the control value) are determined by non-linear regression analysis of the concentration-response curves using the Hill equation.
The reference compound used for this assay is Staurosporine.

[3] = system: SC-hCMs (stem cell cardiomyocytes); test: Cardiomyocyte assay (CRL), iPSC cardiomyocytes; format: cell-based, human; settings: for ΔΔ Na Spike Amp at 10 μM, 48 h (%): corrected by time matched controls
Method: All measurements were performed at physiological temperature in a tissue culture incubator (37° C.; 5% CO2). Test article, positive controls and vehicle were added in a sterile tissue culture hood.
At least 10 h before compound addition SC-hCMs were exposed to the fresh culture medium. Before compound addition a one-minute recording of field potentials and impedance signals (baseline) was obtained. Test articles, vehicle and positive controls were added as a 2× concentration. One-minute recordings were obtained 0.5, 1, 2, 24 and 48 h after test article addition.
At the time of drug application, culture medium was added to an independent 96 well plate that was incubated in a tissue culture incubator for 48 h. This culture medium was used as the blank of the cTnI release assay.
After the 48 h exposure recording, 150 μL of each well was centrifuged to remove debris. The supernatant was collected and frozen for later cTnI content analysis using an ELISA plate according the manufacturer's instructions (Abcam, cat #ab200016).
Data was stored on the Charles River Laboratories computer network for off-line analysis. Data acquisition was performed using RTCA Cardio Software.
Data analysis was performed using RTCA Cardio Software, Microsoft Excel and Matlab scripts. Data were reported as mean±SEM.
The following field potential parameters were quantitated: Sodium Spike amplitude, Sodium Spike Rate, field potential duration (FPD), Bazett corrected field potential duration (FPDcB), and dysrhythmic events if present.
The following impedance parameters were quantitated: Cell Index, peak amplitude, relaxation from peak to 50% amplitude (Rel50) and twitch duration.
The sodium spike is the voltage signal produced by the propagation of the depolarizing wave (positive peak) and the local activation of sodium channels (negative peak). The sodium spike amplitude is the voltage difference (in […]) between the positive and negative peaks of the sodium spike. The Sodium Spike Rate is a measure of the rate of sodium spike generation (spikes/min) produced by the spontaneous beating of stem cell cardiomyocytes.
Abnormal rhythm activity was characterized by the presence of the following proarrhythmic markers:
Triggered activity: Triggered activity (TA) is activity characterized by the presence of voltage oscillations during the repolarization period (Early After Depolarizations, EADs) or after the repolarization is completed (Delayed After Depolarizations, DADs). They are produced by different mechanisms. EADs are due to reactivation of sodium and calcium currents due to prolongation of the action potential. DADs are due to transient releases of calcium from intracellular calcium stores. Both EADs and DADs can trigger action potentials (ectopic beats, EB).
Impedance instability: Impedance instability (II) consist of small oscillations of the impedance signal during the slower relaxation phase of the impedance twitch sometimes associated with small oscillations of the field potential (FPO). […] II informs about the possibility of drug-induced delayed repolarization setting the background where more robust proarrhythmic markers like EADs and DADs occur.
The SEM of the difference was calculated according to the following equation ΔΔSEM=(SEMtreatment2+SEMcontrol2)0.5.
The statistical analysis includes 1) a Student paired t-test to evaluate the changes respect to baseline and, 2) a multi-comparison analysis (Dunnett's test) of A % changes respect to time matched controls. An alpha probability of 0.05 was considered significant.

[4] = system: HUVEC (human umbilical venous endothelial cells); test: HUVEC Tube Formation assay; format: cell-based
Method: HUVEC (human umbilical venous endothelial cells, 1.5×10^4/well, ATCC CRL-1730) are placed in an earlier prepared 96-well plate. Test substance and/or vehicle is then added to each well in a final concentration of 0.4% DMSO in growth medium under an atmosphere of 5% CO2 at 37° C. After an 18 h incubation period, morphology of the endothelial cell tubes, which resemble a capillary-like network, are evaluated by a confocal high-content imaging system. Disruption (anti-angiogenesis) of total tube length is measured from each photograph and determined relative to the vehicle control group. […] Compounds are screened at 30, 3, 0.3, 0.03 and 0.003 μM (or μg/mL) in triplicate.

IC50 [2]: 1000 to 10000 nM
SMILES: Cc1ccc(C(=O)Nc2cc3n(n2)CCC3(C)C)cc1C#Cc1cccnc1 [Example 26, N-(4,4-dimethyl-5,6-dihydropyrrolo[1,2-b]pyrazol-2-yl)-4-methyl-3-[2-(3-pyridyl)ethynyl]benzamide]
rescue of motor neuron survival in co-culture with patient-derived iAstrocytes (FIG. 3) [1]: rescue motor neuron survival
amount of α-synuclein present in ReNcell VM neuronal cells (FIG. 4) [2]: dose dependant reduction

ΔΔ Na Spike Amp at 10 μM, 48 h (%) ([3]; 10 μM, 48 h): −96.2%
SMILES: Cc1cn(-c2cc(NC(=O)c3ccc(C)c(Nc4nccc(-c5cccnc5)n4)c3)cc(C(F)(F)F)c2)cn1 [Comparative Example 3, 4-methyl-N-[3-(4-methylimidazol-1-yl)-5-(trifluoromethyl)phenyl]-3-[(4-pyridin-3-ylpyrimidin-2-yl)amino]benzamide, reference compound]
IC50 (HUVEC): 3600 nM
Proarrhythmic Markers at 10 μM, 48 h ([3]; 10 μM, 48 h): II and TA
GI50 ([4]; 18 h incubation, read-out: Tube formation GI50): > 10 µM

IC50 [2]: 1000 to 10000 nM
SMILES: Cc1ccc(C(=O)Nc2cnn(C(C)C)c2)cc1C#Cc1cccnc1 [Example 24, N-(1-isopropylpyrazol-4-yl)-4-methyl-3-[2-(3-pyridyl)ethynyl]benzamide]
rescue of motor neuron survival in co-culture with patient-derived iAstrocytes (FIG. 3) [1]: rescue motor neuron survival
efficacy at very high concentrations (motor neuron survival) [1]: reduction in efficacy at very high concentrations
amount of α-synuclein present in ReNcell VM neuronal cells (FIG. 4) [2]: dose dependant reduction

SMILES: Cc1ccc(C(=O)Nc2cnn(C(C)(C)C)c2)cc1C#Cc1cccnc1 [Example 10, N-(1-tert-butyl-1H-pyrazol-4-yl)-4-methyl-3-[2-(pyridin-3-yl)ethynyl]benzamide]
rescue of motor neuron survival in co-culture with patient-derived iAstrocytes (FIG. 3) [1]: rescue motor neuron survival

SMILES: Cc1ccc(C(=O)Nc2ccc(CN3CCN(C)CC3)c(C(F)(F)F)c2)cc1C#Cc1cnc2cccnn12 [Comparative Example 2, 3-(imidazo[1,2-b]pyridazin-3-ylethynyl)-4-methyl-N-[4-[(4-methyl-1-piperazinyl)methyl]-3-(trifluoromethyl)phenyl]benzamide, reference compound]
IC50 (HUVEC): 320 nM
Proarrhythmic Markers at 10 μM, 48 h ([3]; 10 μM, 48 h): Q and RV
ΔΔ Na Spike Amp at 10 μM, 48 h (%) ([3]; 10 μM, 48 h): (cells quiescent)
GI50 ([4]; 18 h, read-out: Tube formation GI50 (μM)): 1.2 µM

SMILES: Cc1ccc(C(=O)Nc2cnn(C(C)C3CC3)c2)cc1C#Cc1cccnc1 (centres unmarked) [Example 17, N-[1-(1-cyclopropylethyl)-1H-pyrazol-4-yl]-4-methyl-3-[2-(pyridin-3-yl)ethynyl]benzamide]
rescue of motor neuron survival in co-culture with patient-derived iAstrocytes (FIG. 3) [1]: rescue motor neuron survival
efficacy at very high concentrations (motor neuron survival) [1]: reduction in efficacy at very high concentrations

effect on sodium spike amplitude vs. control (given as reduction for nilotinib and Example 39) ([3]; 10 μM after 48 hours): 96.2%
SMILES: Cc1cn(-c2cc(NC(=O)c3ccc(C)c(Nc4nccc(-c5cccnc5)n4)c3)cc(C(F)(F)F)c2)cn1 [nilotinib, Nilotinib]
proarrhythmic markers observed ([3]; 10 μM, 48 h): triggered activity and impedance instability
